Data set [1] can be described thus: Questionnaires on energy and exercise one year after dosing. Type of data set: in vivo, human. To be noted: 0.5 mg daily cohort.
Data set [2] in a line: RAD001 levels in blood (trough).
Data set [3] has as its target T1, biotinylated mesothelin ECD (Homo sapiens, UniProt Q13421).
T1 construct: made in house; host or cells: HEK293F (transient)
Briefly: SPR relative epitope binning in comparison to SS1. Type of data set: binding. Conditions: 50 nM SS1 captured first, then scFv at 100 nM. As for the experimental part:
In embodiments, the competition assay is an SPR-based assay. Briefly, the antigen, e.g., human mesothelin, is immobilized on a surface. Through a microflow system, a reference antibody is injected over the antigen layer. Upon binding of the reference antibody to the antigen, an increase in signal, typically expressed in response units (RU) is detected, e.g., reference signal. After a desired time, a test antibody is injected over the antigen layer. If the test antibody binds to a different region or epitope of the antigen, then an additional increase in signal is detected, e.g., a 5% or more, 10% or more, 15% or more, 20% or more, 25% or more, 30% or more, 35%, or more, 40% or more, 45% or more, 50% or more, 55% of more, 60% or more, 65% or more, 70% or more, 75% or more, 80% or more, 85% or more, 90% or more, or 95% or more increase in signal, e.g., RU, as compared to the highest signal detected upon binding of the reference antibody, e.g., the reference signal. If the test antibody binds to the same region or epitope of the antigen, then little or no increase in signal, e.g., RU, will be detected, e.g., less than 20%, less than 15%, less than 10%, less than 5%, less than 4%, less than 3%, less than 2%, or less than 1% increase in signal, e.g., RU, as compared to the highest signal detected upon binding of the reference antibody, e.g., the reference signal. When using this SPR-based competition assay, an antibody is said to compete with the reference antibody when less than 20%, less than 15%, less than 10%, less than 5%, less than 4%, less than 3%, less than 2%, or less than 1% increase in signal, e.g., RU, is detected when compared to the reference signal detected upon binding of the reference antibody to the antigen. An antibody is said to not compete, or compete poorly, with a reference antibody when a 5% or more, 10% or more, 15% or more, 20% or more, 25% or more, 30% or more, 35%, or more, 40% or more, 45% or more, 50% or more, 55% of more, 60% or more, 65% or more, 70% or more, 75% or more, 80% or more, 85% or more, 90% or more, or 95% or more increase in signal, e.g., RU, is detected when compared to the reference signal detected upon binding of the reference antibody to the antigen.
To determine the relative binding epitope of each of the scFvs in comparison to SS1, 50 nM SS1 was captured by biotinylated mesothelin ECD immobilized on a streptavidin sensor chip at a contact time of 180 seconds resulting in a relative density of 70 RU. Purified scFv at 100 nM (M5, M11, M12, M14, M16, M17, M21, or M23) was then immediately injected over the chip to minimize dissociation of the SS1/mesothelin complex. Binding of the secondary scFv was monitored for 270 seconds.

For data set [4], the system named is Ovcar8, SW1990 and Panc0203. Nature of the data set: IFNγ production of CART-MSLN (CBA-Flex), endogenous MSLN. Type of data set: cell-based, human. Conditions: for IFNγ levels compared with the other CARTs: cancer cells endogenously expressing MSLN. As for the experimental part:
Plots from 20 hour flow-based killing assays using titrating Effector to Target (E:T) ratios with effector CART-MSLN cells targeting CSFE labeled K562 (FIG. 3A. non-expressing MSLN controls) and K562-Meso (FIG. 3B, K562 cells transduced to express MSLN). […] For measuring cytokine production of human scFv bearing CART-MSLN, cells were thawed and allowed to recover overnight. In addition to the humanized CART-MSLN, the SS1 CART-MSLN (murine scFv) was used for comparative purposes. CD19-BBz CART was used as a non-targeting control for background CART cell effect. SS1 CART-MSLN was used in all assays to compare assay variation. The T cells were directed towards K562, a chronic myelogenous leukemia cell line (both MSLN+ and MSLN), the MLSN-expressing ovarian cancer cell line Ovcar8, and the pancreatic cancer lines SW1990 and Panc0203. When analyzing MSLN expression by flow cytometry, we detected 10-fold lower expression of MSLN on Ovcar8 compared to MSLN+K562 cells; SW1990 expressed 10-fold less than Ovcar8. […] In addition, PMA/Ionomycin was used to evaluate the potential of T cells to respond to the endogenous immunological signals. The assay tests only an effector:target ratio of 1:1. The assay is run for 24 hours after mixing of the cells, when the media is removed for cytokine analysis using the IFN-γ CBA-Flex kit for human cytokine detection.
Background levels of cytokine produced from CART-MSLN cells after exposure to the control K562 cells not expressing MSLN were analyzed. […] Differences were dealt with by normalizing the specific IFNγ release over the maximum release (PMA/Ionomycin).

“Also recorded” adds a separate entry of the source.

T1 sequence (Q13421 with tags, fused parts or gaps): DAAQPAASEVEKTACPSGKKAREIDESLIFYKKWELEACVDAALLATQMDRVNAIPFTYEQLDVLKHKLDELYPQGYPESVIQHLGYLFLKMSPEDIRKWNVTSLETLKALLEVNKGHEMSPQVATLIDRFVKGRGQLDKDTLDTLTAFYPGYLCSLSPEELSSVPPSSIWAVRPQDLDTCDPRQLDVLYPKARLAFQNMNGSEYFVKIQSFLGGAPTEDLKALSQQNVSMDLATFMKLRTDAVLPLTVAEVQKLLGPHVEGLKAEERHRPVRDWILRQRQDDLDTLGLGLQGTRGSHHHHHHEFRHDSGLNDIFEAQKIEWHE

On to `CO[C@H]1C[C@@H]2CC[C@@H](C)[C@@](O)(O2)C(=O)C(=O)N2CCCC[C@H]2C(=O)O[C@H]([C@H](C)C[C@@H]2CC[C@@H](OCCO)[C@H](OC)C2)CC(=O)[C@H](C)/C=C(\C)[C@@H](O)[C@@H](OC)C(=O)[C@H](C)C[C@H](C)/C=C/C=C/C=C/1C` [RAD001, (1R,9S,12S,15R,16E,18R,19R,21R,23 S,24E,26E,28E,30S,32S,35R)-1,18-dihydroxy-12-{(1R)-2-[(1 S,3R,4R)-4-(2-hydroxyethoxy)-3-methoxycyclohexyl]-1-methylethyl}-19,30-dimethoxy-15,17,21,23,29,35-hexamethyl-11,36-dioxa-4-aza-tricyclo[30.3.1.04,9]hexatriaconta-16,24,26,28-tetraene-2,3,10,14,20-pentaone], for which, in data set [1], the “energy and exercise ability” value was “increased energy and exercise ability as compared to placebo”. Besides, the average trough level in data set [2] (0.5 mg daily) is 0.9 ng/mL; in data set [2] (5 mg weekly), “below detection limits”; in data set [2] (20 mg weekly), 0.7 ng/mL. For the same molecule, the “trough level of study regimens relative to approved regimens” value in data set [2] (in vivo) was 3-20 fold lower.

B1: M5: human anti-mesothelin scFv SEQ ID NO: 43; full CAR SEQ ID NO: 67 (protein)
scFv: QVQLVQSGAEVEKPGASVKVSCKASGYTFTDYYMHWVRQAPGQGLEWMGWINPNSGGTNYAQKFQGRVTMTRDTSISTAYMELSRLRSDDTAVYYCASGWDFDYWGQGTLVTVSSGGGGSGGGGSGGGGSGGGGSDIVMTQSPSSLSASVGDRVTITCRASQSIRYYLSWYQQKPGKAPKLLIYTASILQNGVPSRFSGSGSGTDFTLTISSLQPEDFATYYCLQTYTTPDFGPGTKVEIK
With B1, the “relative epitope binning against SS1 on human mesothelin” value in data set [3] is listed as “bind to a different epitope than SS1; also recorded: bind to a unique epitope”. Besides, in data set [4] (E:T 1:1, 24 hours), the “IFNγ response to cancer cells endogenously expressing MSLN” value was “responded”. In data set [4], the “IFNγ levels compared with the other CARTs” value is “superior IFNγ levels”.

B2: M11: human anti-mesothelin scFv SEQ ID NO: 49; full CAR SEQ ID NO: 73 (protein)
scFv: QVQLQQSGAEVKKPGASVKVSCKASGYTFTGYYMHWVRQAPGQGLEWMGWINPNSGGTNYAQNFQGRVTMTRDTSISTAYMELRRLRSDDTAVYYCASGWDFDYWGQGTLVTVSSGGGGSGGGGSGGGGSGGGGSDIRMTQSPSSLSASVGDRVTITCRASQSIRYYLSWYQQKPGKAPKLLIYTASILQNGVPSRFSGSGSGTDFTLTISSLQPEDFATYYCLQTYTTPDFGPGTKVEIK
In the case of B2, the “relative epitope binning against SS1 on human mesothelin” value in data set [3] is listed as “bind to a different epitope than SS1; also recorded: bind to a unique epitope”. Besides, the “IFNγ levels compared with the other CARTs” value in data set [4] is listed as “superior IFNγ levels”.
